Reference: patent US20250127699A1, “One Pot Process for Preparing 'Grit-Free' Solid Cleansing Compositions” (GALAXY SURFACTANTS LTD., priority 2023, published 2025)

How the values were obtained:
Test in all cases: Minimum inhibitory concentration
Type in all cases: cell-based
Details in all cases: at pH 5.5, 1% solution
[1] = tested on: Micrococcus luteus NCIM 2103
Text: (§1) These gentle antimicrobials are well-established in personal care industry for their skin and scalp care benefits that stem from their broad range of antimicrobial activity. These are mostly deployed in a variety of ‘liquid’ wash formulations (body wash/hair wash) and sometimes in ‘leave-on’ creams and lotions (anti-acne). […] These two lipidated glycines, alone as well as when combined together, show remarkable activity against Candida albicans and Candida glabrata yeast (vaginal candidiasis, the yeast infection) and Gardnerella vaginalis (a Gram-variable bacterium that is a causative microbe for bacterial vaginosis). […] These two N-acyl glycines, akin to skin fatty acids, are devoid of any structural feature, like halogen atom or a heterocycle, that can be a potential hazard to the environment and living systems. […] The N-acyl glycine alone or in combination can be used up to 4.0% by weight of the total composition. The traditional environmentally toxic chlorinated antimicrobials for cleansing hygiene bars such as Chlorhexidne, Triclosan, Chloroxylenol, Climbazole, Triclocarban (banned in 2017) or other traditional anti-dandruff (antifungal) agents like Climbazole or Octopirox (monoethanol amine salt of piroctone), Zinc pyrithion (now banned in EU) etc. generate unsalvageable waste at every step of the multistep syntheses. In contrast to the facts (hazardous synthesis and toxicity) of traditional antimicrobials for solid cleansers, the lipidated glycines, that are part of solid compositions of the present invention, are manufactured by green chemistry without generating any unsalvageable/non-disposable waste as taught by IN patent 362888. Also, it is to be noted that N-acyl glycines are biodegradable and environmentally benign. These two lipidated glycines (Formula I and Formula II) are organic acids and by adding them in the second stage of processing when the mass of the first stage is being kneaded with limited amount of water in a sigma blender, helps to achieve the desired pH of the final solid cleanser. pH of the final solid cleanser can be brought down from 6.0 to 4.0 by incorporating these acyl glycines at an amount of about 0.5% to 4.0% of the total composition. The two N-acyl glycines can be used individually or in a combination. Examples 1 to 9 deploy either N-capryloyl glycine or N-undecylenoyl glycine, however, Example 10 to 13 use both of N-capryloyl glycine and N-undecylenoyl glycine. Higher % of capryloyl glycine (around 3.0% of the total composition) results in lower pH that is intended for anti-acne or feminine intimate hygiene wash as exemplified in Example 3. Minimum inhibitory concentrations of capryloyl glycine (CG) and undecylenoyl glycine (UG) and their combination (CG-UG) in 1:1 molar ratio using 1% solution at pH 5.5 are given in Table 1. […] The MIC numbers (less than 0.1%) for the N-acyl glycines against Gardnerella bacterium are extremely good. […] The preferred antimicrobials for the solid cleansers of the present invention are the combination of N-capryloyl glycine and N-undecylenoyl glycine in the molar ratio of 1:1.

[2] = tested on: Escherichia coli ATCC 8739
Text: as §1

[3] = tested on: Staphylococcus hominis MTCC 8980
Text: as §1

[4] = tested on: Gardnerella vaginalis ATCC 14018
Text: as §1

[5] = tested on: Propionibacterium acnes MTCC 1951
Text: as §1

[6] = tested on: Pseudomonas aeruginosa ATCC 15442
Text: as §1

[7] = tested on: Malassezia restricta ATCC MYA 4611
Text: as §1

[8] = tested on: Candida albicans ATCC 10231
Text: as §1

[9] = tested on: Burkholderia cepacia ATCC 25416
Text: as §1

[10] = tested on: Staphylococcus epidermidis NCIM 2493
Text: as §1

[11] = tested on: Candida glabrata ATCC 66032
Text: as §1

[12] = tested on: Malassezia furfur ATCC 14521
Text: as §1

[13] = tested on: Aspergillus niger ATCC 16404
Text: as §1

[14] = tested on: Staphylococcus aureus ATCC 6538
Text: as §1

[15] = tested on: Corynebacterium xerosis ATCC 373
Text: as §1

Structure (SMILES): CCCCCCCC(=O)NCC(=O)O [CG, N-capryloyl glycine]
- Minimum Inhibitory Concentration [1]: 1%
- Minimum Inhibitory Concentration [2]: 0.7%
- Minimum Inhibitory Concentration [3]: 0.3%
- Minimum Inhibitory Concentration [4]: 0.09%
- Minimum Inhibitory Concentration [5]: 1%
- Minimum Inhibitory Concentration [6]: 1%
- Minimum Inhibitory Concentration [7]: 0.4%
- Minimum Inhibitory Concentration [8]: 0.6%
- Minimum Inhibitory Concentration [9]: 1%
- Minimum Inhibitory Concentration [10]: 1%
- Minimum Inhibitory Concentration [11]: 1%
- Minimum Inhibitory Concentration [12]: 0.5%
- Minimum Inhibitory Concentration [13]: 1%
- Minimum Inhibitory Concentration [14]: 1%
- Minimum Inhibitory Concentration [15]: 1. %

Structure (SMILES): C=CCCCCCCCCC(=O)NCC(=O)O [UG, N-undecylenoyl glycine]
- Minimum Inhibitory Concentration [1]: 0.5%
- Minimum Inhibitory Concentration [2]: 0.9%
- Minimum Inhibitory Concentration [3]: 0.2%
- Minimum Inhibitory Concentration [4]: 0.06%
- Minimum Inhibitory Concentration [5]: 1%
- Minimum Inhibitory Concentration [6]: 1%
- Minimum Inhibitory Concentration [7]: 0.4%
- Minimum Inhibitory Concentration [8]: 1%
- Minimum Inhibitory Concentration [9]: 1%
- Minimum Inhibitory Concentration [10]: 0.4%
- Minimum Inhibitory Concentration [11]: 0.9%
- Minimum Inhibitory Concentration [12]: 0.5%
- Minimum Inhibitory Concentration [13]: 1%
- Minimum Inhibitory Concentration [14]: 0.6%
- Minimum Inhibitory Concentration [15]: 0.7%
